Test results reported in ChEMBL document CHEMBL4138123, “Design, synthesis and biological evaluation of novel pyrazolochalcones as potential modulators of PI3K/Akt/mTOR pathway and inducers of apoptosis in breast cancer cells” (Eur J Med Chem, 2017).

Assays:
Type in all cases: functional
CCRF-CEM = assay: Cytotoxicity against human CCRF-CEM cells assessed as growth inhibition after 48 hrs by sulforhodamine B assay
HL-60(TB) [1] = assay: Cytotoxicity against human HL-60(TB) cells assessed as growth inhibition after 48 hrs by sulforhodamine B assay; details: HL-60, 48 h
MOLT-4 = assay: Cytotoxicity against human MOLT4 cells assessed as growth inhibition after 48 hrs by sulforhodamine B assay; details: MOLT-4, 48 h; for CC50: read-out: LC50 (the source's name)
IGROV-1 [2] = assay: Cytotoxicity against human IGROV1 cells assessed as growth inhibition after 48 hrs by sulforhodamine B assay; details: IGROV-1, 48 h
OVCAR-3 [3] = assay: Cytotoxicity against human OVCAR3 cells assessed as growth inhibition after 48 hrs by sulforhodamine B assay; details: OVCAR-3, 48 h
MCF7 [4] = assay: Cytotoxicity against human MCF7 cells assessed as growth inhibition after 48 hrs by sulforhodamine B assay; details: MCF7, 48 h
A498 = assay: Cytotoxicity against human A498 cells assessed as cell growth at 0.01 uM after 48 hrs by sulforhodamine B assay relative to control; details: A498, 48 h, read-out: Activity
NCI/ADR-RES = assay: Cytotoxicity against human NCI/ADR-RES cells assessed as cell growth at 0.01 uM after 48 hrs by sulforhodamine B assay relative to control; details: read-out: Activity
SK-MEL-28 = assay: Cytotoxicity against human SK-MEL-28 cells assessed as cell growth at 0.01 uM after 48 hrs by sulforhodamine B assay relative to control; details: SK-MEL-28, 48 h, read-out: Activity
Malme-3M = assay: Cytotoxicity against human MALME-3M cells assessed as cell growth at 0.01 uM after 48 hrs by sulforhodamine B assay relative to control; details: read-out: Activity
NCI-H522 = assay: Cytotoxicity against human NCI-H522 cells assessed as cell growth at 0.01 uM after 48 hrs by sulforhodamine B assay relative to control; details: NCI-H522, 48 h, read-out: Activity
RPMI-8226 [5] = assay: Cytotoxicity against human RPMI8226 cells assessed as cell growth at 0.01 uM after 48 hrs by sulforhodamine B assay relative to control; details: RPMI-8226, 48 h, read-out: Activity
HL-60(TB) [6] = assay: Cytotoxicity against human HL-60(TB) cells assessed as cell growth at 0.1 uM after 48 hrs by sulforhodamine B assay relative to control; details: HL-60, 48 h, read-out: Activity
RPMI-8226 [7] = assay: Cytotoxicity against human RPMI8226 cells assessed as cell growth at 0.1 uM after 48 hrs by sulforhodamine B assay relative to control; details: RPMI-8226, 48 h, read-out: Activity
A549 [8] = assay: Cytotoxicity against human A549/ATCC cells assessed as cell growth at 0.1 uM after 48 hrs by sulforhodamine B assay relative to control; details: A549, 48 h, read-out: Activity
COLO 205 = assay: Cytotoxicity against human COLO205 cells assessed as cell growth at 0.1 uM after 48 hrs by sulforhodamine B assay relative to control; details: COLO 205, 48 h, read-out: Activity
SNB-19 [9] = assay: Cytotoxicity against human SNB19 cells assessed as cell growth at 0.1 uM after 48 hrs by sulforhodamine B assay relative to control; details: SNB-19, 48 h, read-out: Activity
OVCAR-5 = assay: Cytotoxicity against human OVCAR5 cells assessed as cell growth at 0.1 uM after 48 hrs by sulforhodamine B assay relative to control; details: OVCAR-5, 48 h, read-out: Activity
PC-3 = assay: Cytotoxicity against human PC3 cells assessed as cell growth at 0.1 uM after 48 hrs by sulforhodamine B assay relative to control; details: PC-3, 48 h, read-out: Activity
MCF7 [10] = assay: Cytotoxicity against human MCF7 cells assessed as cell growth at 0.1 uM after 48 hrs by sulforhodamine B assay relative to control; details: MCF7, 48 h, read-out: Activity
T47D [11] = assay: Cytotoxicity against human T47D cells assessed as cell growth at 0.1 uM after 48 hrs by sulforhodamine B assay relative to control; details: read-out: Activity
HL-60(TB) [12] = assay: Cytotoxicity against human HL-60(TB) cells assessed as cell growth at 1 uM after 48 hrs by sulforhodamine B assay relative to control; details: HL-60, 48 h, read-out: Activity
RPMI-8226 [13] = assay: Cytotoxicity against human RPMI8226 cells assessed as cell growth at 1 uM after 48 hrs by sulforhodamine B assay relative to control; details: RPMI-8226, 48 h, read-out: Activity
A549 [14] = assay: Cytotoxicity against human A549/ATCC cells assessed as cell growth at 1 uM after 48 hrs by sulforhodamine B assay relative to control; details: A549, 48 h, read-out: Activity
SN12C [15] = assay: Cytotoxicity against human SN12C cells assessed as cell growth at 1 uM after 48 hrs by sulforhodamine B assay relative to control; details: read-out: Activity
UO-31 = assay: Cytotoxicity against human UO31 cells assessed as cell growth at 1 uM after 48 hrs by sulforhodamine B assay relative to control; details: UO-31, 48 h, read-out: Activity
Hs-578T = assay: Cytotoxicity against human Hs 578T cells assessed as cell growth at 1 uM after 48 hrs by sulforhodamine B assay relative to control; details: read-out: Activity
SNB-19 [16] = assay: Cytotoxicity against human SNB19 cells assessed as cell growth at 10 uM after 48 hrs by sulforhodamine B assay relative to control; details: SNB-19, 48 h, read-out: Activity
U-251 [17] = assay: Cytotoxicity against human U251 cells assessed as cell growth at 10 uM after 48 hrs by sulforhodamine B assay relative to control; details: U-251, 48 h, read-out: Activity
IGROV-1 [18] = assay: Cytotoxicity against human IGROV1 cells assessed as cell growth at 10 uM after 48 hrs by sulforhodamine B assay relative to control; details: IGROV-1, 48 h, read-out: Activity
SN12C [19] = assay: Cytotoxicity against human SN12C cells assessed as cell growth at 10 uM after 48 hrs by sulforhodamine B assay relative to control; details: read-out: Activity
NCI-H322M = assay: Cytotoxicity against human NCI-H322M cells assessed as cell growth at 100 uM after 48 hrs by sulforhodamine B assay relative to control; details: read-out: Activity
U-251 [20] = assay: Cytotoxicity against human U251 cells assessed as cell growth at 100 uM after 48 hrs by sulforhodamine B assay relative to control; details: U-251, 48 h, read-out: Activity
OVCAR-3 [21] = assay: Cytotoxicity against human OVCAR3 cells assessed as cell growth at 100 uM after 48 hrs by sulforhodamine B assay relative to control; details: OVCAR-3, 48 h, read-out: Activity
SK-OV-3 = assay: Cytotoxicity against human SKOV3 cells assessed as cell growth at 100 uM after 48 hrs by sulforhodamine B assay relative to control; details: SK-OV-3, 48 h, read-out: Activity
T47D [22] = assay: Cytotoxicity against human T47D cells assessed as cell growth at 100 uM after 48 hrs by sulforhodamine B assay relative to control; details: read-out: Activity
A549 [23] = assay: Cytotoxicity against human A549/ATCC cells assessed as cell growth at 10 uM after 48 hrs by sulforhodamine B assay relative to control; details: A549, 48 h, read-out: Activity

COc1cc(-c2cc(/C=C/C(=O)c3ccc(F)c(F)c3)[nH]n2)cc(OC)c1OC
LC50 (concentration killing 50% of cells) (CCRF-CEM): > 100 µM
TGI (CCRF-CEM): 47.2 µM
LC50 (HL-60(TB) [1]): > 100 µM
TGI (HL-60(TB) [1]): 6.03 µM
TGI (MOLT-4): 9.09 µM
CC50 (MOLT-4): > 100 µM
LC50 (IGROV-1 [2]): > 100 µM
TGI (IGROV-1 [2]): 87 µM
LC50 (OVCAR-3 [3]): 43.6 µM
TGI (OVCAR-3 [3]): 6.25 µM
LC50 (MCF7 [4]): > 100 µM
TGI (MCF7 [4]): 12.3 µM
growth at 0.01 µM (A498): 100%
growth at 0.01 µM (NCI/ADR-RES): 100%
growth at 0.01 µM (SK-MEL-28): 102%
growth at 0.01 µM (Malme-3M): 93%
growth at 0.01 µM (NCI-H522): 96%
growth at 0.01 µM (RPMI-8226 [5]): 94%
growth at 0.1 µM (HL-60(TB) [6]): 93%
growth at 0.1 µM (RPMI-8226 [7]): 90%
growth at 0.1 µM (A549 [8]): 98%
growth at 0.1 µM (COLO 205): 98%
growth at 0.1 µM (SNB-19 [9]): 87%
growth at 0.1 µM (OVCAR-5): 93%
growth at 0.1 µM (PC-3): 93%
growth at 0.1 µM (MCF7 [10]): 98%
growth at 0.1 µM (T47D [11]): 93%
growth at 1 µM (HL-60(TB) [12]): 101%
growth at 1 µM (RPMI-8226 [13]): 73%
growth at 1 µM (A549 [14]): 82%
growth at 1 µM (SN12C [15]): 89%
growth at 1 µM (UO-31): 84%
growth at 1 µM (Hs-578T): 86%
growth at 10 µM (SNB-19 [16]): 25%
growth at 10 µM (U-251 [17]): 7%
growth at 10 µM (IGROV-1 [18]): 14%
growth at 10 µM (SN12C [19]): 15%
growth at 100 µM (NCI-H322M): 3%
growth at 100 µM (U-251 [20]): -29%
growth at 100 µM (OVCAR-3 [21]): -64%
growth at 100 µM (SK-OV-3): -5%
growth at 100 µM (T47D [22]): -11%

COc1cc(-c2cc(/C=C/C(=O)c3ccc(N)cc3)[nH]n2)cc(OC)c1OC
GI50 (CCRF-CEM): 0.55 µM
LC50 (concentration killing 50% of cells) (CCRF-CEM): > 100 µM
TGI (CCRF-CEM): 4.17 µM
GI50 (HL-60(TB) [1]): 1.74 µM
LC50 (HL-60(TB) [1]): > 100 µM
TGI (HL-60(TB) [1]): 10.8 µM
GI50 (MOLT-4): 1.91 µM
TGI (MOLT-4): 8.51 µM
CC50 (MOLT-4): > 100 µM
GI50 (IGROV-1 [2]): 3.2 µM
LC50 (IGROV-1 [2]): > 100 µM
TGI (IGROV-1 [2]): 10.5 µM
GI50 (OVCAR-3 [3]): 1.57 µM
LC50 (OVCAR-3 [3]): 7.26 µM
TGI (OVCAR-3 [3]): 3.37 µM
GI50 (MCF7 [4]): 1.5 µM
LC50 (MCF7 [4]): 60.5 µM
TGI (MCF7 [4]): 5.42 µM
growth at 0.01 µM (A498): 91%
growth at 0.01 µM (NCI/ADR-RES): 106%
growth at 0.01 µM (SK-MEL-28): 89%
growth at 0.01 µM (Malme-3M): 98%
growth at 0.01 µM (NCI-H522): 92%
growth at 0.01 µM (RPMI-8226 [5]): 98%
growth at 0.1 µM (HL-60(TB) [6]): 99%
growth at 0.1 µM (RPMI-8226 [7]): 97%
growth at 0.1 µM (A549 [8]): 94%
growth at 0.1 µM (COLO 205): 100%
growth at 0.1 µM (SNB-19 [9]): 94%
growth at 0.1 µM (OVCAR-5): 103%
growth at 0.1 µM (PC-3): 94%
growth at 0.1 µM (MCF7 [10]): 91%
growth at 0.1 µM (T47D [11]): 85%
growth at 1 µM (HL-60(TB) [12]): 66%
growth at 1 µM (RPMI-8226 [13]): 28%
growth at 1 µM (A549 [14]): 80%
growth at 1 µM (SN12C [15]): 85%
growth at 1 µM (UO-31): 71%
growth at 1 µM (Hs-578T): 87%
growth at 10 µM (A549 [23]): -15%
growth at 10 µM (U-251 [17]): -96%
growth at 10 µM (IGROV-1 [18]): 1%
growth at 10 µM (SN12C [19]): -45%
growth at 100 µM (NCI-H322M): -89%
growth at 100 µM (U-251 [20]): -98%
growth at 100 µM (OVCAR-3 [21]): -93%
growth at 100 µM (SK-OV-3): -98%
growth at 100 µM (T47D [22]): -47%
